# Test results from patent US20240239784A1, “INDOLE COMPOUNDS AND METHODS OF USE” (GENZYME CORPORATION, priority 2021, published 2024).
# Test system: NBD1
# Assay: Aggregation analysis of NBD1 thermal stability by differential static light scattering (DSLS)
# Type: binding, Human
# Conditions: compound at 100 μM; ΔTagg versus DMSO control
# Method: Purified recombinant NBD1 was produced using previously described methods (A. Schmidt, J. L. Mendoza, P. J. Thomas (2011) Biochemical and Biophysical Approaches to Probe CFTR Structure (365-376) M. D. Amaral, K. Kunzelmann (eds.), Cysic Fibrosis, Methods in Molecular Biology 741, Springer Science+Business Media). The effect of test compounds on thermal stability of NBD1 was evaluated by differential static light scattering (DSLS) using the Harbinger Stargazer-384 instrument (Epiphyte Three, Toronto, Canada). Test compounds were dissolved and diluted to desired concentrations in 100% DMSO. The compounds or DMSO controls (100 nL) were stamped into wells of a […] low volume optical plate (Corning Inc., Corning, NY) using the Echo 555 acoustic liquid handler (Labcyte Inc., San Jose, CA).
# NBD1 protein was diluted to 0.2 mg/ml in S200 buffer (50 mM Tris-HCl, 150 mM NaCl, 5 mM MgCl2, 2 mM ATP, 2 mM DTT, pH7.6) containing 1% glycerol. 10 uL of protein solution was aliquoted into the 384-well plate harboring the test compounds and 10 uL mineral oil was overlayed onto the protein solution, using the epMotion robotic liquid handler (Eppendorf North America, Hauppauge, NY). After placing into the Stargazer instrument, the plate was heated at 1° C. per minute to 70° C. Images were captured from 25° C. to 70° C. every 0.5° C. At the end of the experiment run, instrument software integrated image files and analyzed data automatically. A […] regression curve was generated for each well, representing the increase in light scattering over time. A temperature of aggregation (Tagg) was calculated based on the inflection point of the curve. To better compare data across experiments the average Tagg for DMSO control wells was calculated and subtracted from values for wells containing compounds to obtain a “ΔTagg” value. These ΔTagg values reflect stabilizing efficacy of the compounds.
row,SMILES,DSLS NBD1/3D Human Stability delta-T (° C.) @ 100 (μM)
1,"COCCS(=O)(=O)c1c(Oc2cccc(-c3ncc(C(C)(O)c4ccccc4)[nH]3)c2)c(F)cc2[nH]ccc12 (centres unmarked) [Example 61, 1-(2-(3-((6-Fluoro-4-((2-methoxyethyl)sulfonyl)-1H-indol-5-yl)oxy)phenyl)-1H-imidazol-5-yl)-1-phenylethan-1-ol]",B (4-8° C.)
2,"COCC[S+]([O-])c1c(Oc2cccc(-c3ncc(C(C)(O)c4ccccc4)[nH]3)c2)c(F)cc2[nH]ccc12 (centres unmarked) [Example 62, 1-(2-(3-((6-Fluoro-4-((2-methoxyethyl)sulfinyl)-1H-indol-5-yl)oxy)phenyl)-1H-imidazol-5-yl)-1-phenylethan-1-ol]",B (4-8° C.)
3,"CNCCS(=O)(=O)c1c(Oc2cccc(-c3ncc(C(C)(O)c4ccccc4)[nH]3)c2)c(F)cc2[nH]ccc12 (centres unmarked) [Example 64, 1-(2-(3-((6-Fluoro-4-((2-(methylamino)ethyl)sulfonyl)-1H-indol-5-yl)oxy)phenyl)-1H-imidazol-5-yl)-1-phenylethan-1-ol]",A (T ≥8° C.)
4,"CC(=O)c1c(Oc2cccc(-c3nc(C(C)(O)c4ccccc4)c[nH]3)c2)c(F)cc2[nH]ccc12 (centres unmarked) [Example 65, 1-(6-Fluoro-5-(3-(4-(1-hydroxy-1-phenylethyl)-1H-imidazol-2-yl)phenoxy)-1H-indol-4-yl)ethan-1-one]",A (T ≥8° C.)
5,"CC(O)c1c(Oc2cccc(-c3nc(C(C)(O)c4ccccc4)c[nH]3)c2)c(F)cc2[nH]ccc12 (centres unmarked) [Example 66, 1-(2-(3-((6-Fluoro-4-(1-hydroxyethyl)-1H-indol-5-yl)oxy)phenyl)-1H-imidazol-4-yl)-1-phenylethan-1-ol]",A (T ≥8° C.)
6,"O=C(O)c1c(Oc2cccc(-c3nc(C(O)(c4ccccc4)C(F)(F)F)n[nH]3)c2)ccc2[nH]ccc12 (centres unmarked) [Example 67, 5-(3-(3-(2,2,2-Trifluoro-1-hydroxy-1-phenylethyl)-1H-1,2,4-triazol-5-yl)phenoxy)-1H-indole-4-carboxylic acid]",C (≤4° C.)
7,"CC(O)(c1ccccc1)c1cnc(-c2cccc(Oc3cc(F)c4[nH]ccc4c3)c2)[nH]1 (centres unmarked) [Example 69, 1-(2-(3-((7-Fluoro-1H-indol-5-yl)oxy)phenyl)-1H-imidazol-5-yl)-1-phenylethan-1-ol]",B (4-8° C.)
8,"CN1C(=O)SC(Cc2c(Oc3ccc(F)c(-c4nc(C(C)(O)c5ccccc5)c[nH]4)c3)c(F)cc3[nH]ccc23)C1=O (centres unmarked) [Example 70, 5-((6-fluoro-5-(4-fluoro-3-(4-(1-hydroxy-1-phenylethyl)-1H-imidazol-2-yl)phenoxy)-1H-indol-4-yl)methyl)-3-methylthiazolidine-2,4-dione]",B (4-8° C.)
9,"CC(O)(c1ccccc1)c1cnc(-c2cc(Oc3c(F)cc4[nH]ccc4c3CCC(=O)O)ccc2F)[nH]1 (centres unmarked) [Example 71, 3-(6-Fluoro-5-(4-fluoro-3-(5-(1-hydroxy-1-phenylethyl)-1H-imidazol-2-yl)phenoxy)-1H-indol-4-yl)propanoic acid]",A (T ≥8° C.)
10,"CS(=O)(=O)c1c(Oc2ccc(F)c(-c3nc(C(OCCO)c4ccccc4)c[nH]3)c2)c(F)cc2[nH]ccc12 (centres unmarked) [Example 72, 2-((2-(2-Fluoro-5-((6-fluoro-4-(methylsulfonyl)-1H-indol-5-yl)oxy)phenyl)-1H-imidazol-4-yl)(phenyl)methoxy)ethan-1-ol]",A (T ≥8° C.)
11,"CS(=O)(=O)c1c(Oc2ccc(F)c(-c3nc(C(OCC(=O)O)c4ccccc4)c[nH]3)c2)c(F)cc2[nH]ccc12 (centres unmarked) [Example 73, 2-((2-(2-Fluoro-5-((6-fluoro-4-(methylsulfonyl)-1H-indol-5-yl)oxy)phenyl)-1H-imidazol-4-yl)(phenyl)methoxy)acetic acid]",A (T ≥8° C.)
12,"Cc1c(Oc2ccc(F)c(-c3ncc(C(C)(O)c4ccccc4)[nH]3)c2)c(F)cc2[nH]cc(CC(=O)O)c12 (centres unmarked) [Example 74, 2-(6-Fluoro-5-(4-fluoro-3-(5-(1-hydroxy-1-phenylethyl)-1H-imidazol-2-yl)phenoxy)-4-methyl-1H-indol-3-yl)acetic acid]",B (4-8° C.)
13,"CC(C)(c1ccccc1)c1cnc(-c2cc(Oc3c(F)cc4[nH]ccc4c3CCS(N)(=O)=O)ccc2F)[nH]1 [Example 75, 2-(6-Fluoro-5-(4-fluoro-3-(5-(2-phenylpropan-2-yl)-1H-imidazol-2-yl)phenoxy)-1H-indol-4-yl)ethane-1-sulfonamide]",B (4-8° C.)
14,"CC(C(=O)O)(c1ccccc1)c1c[nH]c(-c2cc(Oc3c(F)cc4[nH]ccc4c3F)ccc2F)n1 (centres unmarked) [Example 76, 2-(2-(5-((4,6-Difluoro-1H-indol-5-yl)oxy)-2-fluorophenyl)-1H-imidazol-4-yl)-2-phenylpropanoic acid]",B (4-8° C.)
15,"Cc1c(Oc2ccc(F)c(-c3nc(C(C)(CO)c4ccccc4)c[nH]3)c2)c(F)cc2[nH]ccc12 (centres unmarked) [Example 77, 2-(2-(2-Fluoro-5-((6-fluoro-4-methyl-1H-indol-5-yl)oxy)phenyl)-1H-imidazol-4-yl)-2-phenylpropan-1-ol]",B (4-8° C.)
16,"CC(C)(O)c1nc(-c2cc(Oc3c(F)cc4[nH]ccc4c3S(C)(=O)=O)ccc2F)[nH]c1Cc1ccccc1 [Example 79, 2-(5-Benzyl-2-(2-fluoro-5-((6-fluoro-4-(methylsulfonyl)-1H-indol-5-yl)oxy)phenyl)-1H-imidazol-4-yl)propan-2-ol]",B (4-8° C.)
17,"NCc1nc(-c2cc(Oc3c(F)cc4[nH]ccc4c3F)ccc2F)[nH]c1Cc1ccccc1 [Example 80, (5-Benzyl-2-(5-((4,6-difluoro-1H-indol-5-yl)oxy)-2-fluorophenyl)-1H-imidazol-4-yl)methanamine]",B (4-8° C.)
18,"O=C(O)c1c(Oc2cccc(-c3nc(C(O)c4ccccc4)c[nH]3)c2)ccc2[nH]ccc12 (centres unmarked) [Example 81, 5-(3-(4-(Hydroxy(phenyl)methyl)-1H-imidazol-2-yl)phenoxy)-1H-indole-4-carboxylic acid]",B (4-8° C.)
19,"COCCNC(=O)c1c(Oc2cccc(-c3nc(C(O)c4ccccc4)c[nH]3)c2)ccc2[nH]ccc12 (centres unmarked) [Example 82, 5-(3-(4-(Hydroxy(phenyl)methyl)-1H-imidazol-2-yl)phenoxy)-N-(2-methoxyethyl)-1H-indole-4-carboxamide]",B (4-8° C.)
20,"O=C(NCC(O)C(F)(F)F)c1c(Oc2cccc(-c3nc(C(O)c4ccccc4)c[nH]3)c2)ccc2[nH]ccc12 (centres unmarked) [Example 83, 5-(3-(4-(Hydroxy(phenyl)methyl)-1H-imidazol-2-yl)phenoxy)-N-(3,3,3-trifluoro-2 hydroxypropyl)-1H-indole-4-carboxamide]",A (T ≥8° C.)
